Laboratory results: ChEMBL document CHEMBL4033666, “Synthesis and mechanistic evaluation of novel N'-benzylidene-carbohydrazide-1H-pyrazolo[3,4-b]pyridine derivatives as non-anionic antiplatelet agents” (Eur J Med Chem, 2017)
Activity calls are given as the source filed them. Unless noted, no cut-off for these calls is given here.

Key:
[1] = Binding affinity to DOPC/DOPS large unilamellar vesicles assessed as blue shift at 100 uM by DAPI staining based fluorescence assay
Blood = assay: Reduction of clot retraction in human whole blood after 2 hrs; type: ADME, tissue-based
Platelet [2] = assay: Antiplatelet activity in human platelet rich plasma assessed as inhibition of epinephrine-induced platelet aggregation at 100 uM preincubated for 2 mins followed by epinephrine addition by turbidimetric method relative to control; type: cell-based
Platelet [3] = assay: Antiplatelet activity in human platelet rich plasma assessed as inhibition of collagen-induced platelet aggregation at 100 uM preincubated for 2 mins followed by collagen addition by turbidimetric method relative to control; type: cell-based
Platelet [4] = assay: Antiplatelet activity in human platelet rich plasma assessed as inhibition of epinephrine-induced platelet aggregation preincubated for 2 mins followed by epinephrine addition by turbidimetric method; type: cell-based
Platelet [5] = assay: Drug uptake in human platelet assessed as co-localization with CD31 at 100 uM by confocal microscopy analysis; type: ADME, cell-based
[6] = molecular target: Prostaglandin G/H synthase 1 (Homo sapiens, UniProt P23219); assay: Inhibition of COX1 in human platelet rich plasma assessed as decrease in PGE2 production at 100 uM using arachidonic acid as substrate after 5 mins by ELISA
Platelet [7] = assay: Drug uptake in human platelet assessed as co-localization with CD31 at 100 uM by epifluorescence assay; type: ADME, cell-based
Platelet [8] = assay: Antiplatelet activity in human platelet rich plasma assessed as inhibition of […]-induced platelet aggregation at 100 uM preincubated for 2 mins followed by […] addition by turbidimetric method; type: functional, cell-based
Platelet [9] = assay: Antiplatelet activity in human platelet rich plasma assessed as inhibition of collagen-induced platelet aggregation preincubated for 2 mins followed by collagen addition by turbidimetric method; type: cell-based
Platelet [10] = assay: Antiplatelet activity in human platelet rich plasma assessed as inhibition of ADP-induced platelet aggregation preincubated for 2 mins followed by ADP addition by turbidimetric method; type: cell-based
Platelet [11] = assay: Antiplatelet activity in human platelet rich plasma assessed as inhibition of ADP-induced platelet aggregation at 100 uM preincubated for 2 mins followed by ADP addition by turbidimetric method relative to control; type: cell-based
Platelet [12] = assay: Potency index, ratio of aspirin IC50 to test compound IC50 for inhibition of arachidonic acid-induced platelet aggregation in human platelet rich plasma; type: functional
[13] = molecular target: T1, Prostaglandin G/H synthase 1 (Ovis aries, UniProt P05979); assay: Inhibition of ovine COX-1 assessed as reduction in PGH2 production up to 100 uM using arachidonic acid as substrate preincubated for 5 mins followed by substrate and hematin addition measured after 2 mins by ELISA relative to control; settings: sheep
T1 sequence (P05979 whole entry): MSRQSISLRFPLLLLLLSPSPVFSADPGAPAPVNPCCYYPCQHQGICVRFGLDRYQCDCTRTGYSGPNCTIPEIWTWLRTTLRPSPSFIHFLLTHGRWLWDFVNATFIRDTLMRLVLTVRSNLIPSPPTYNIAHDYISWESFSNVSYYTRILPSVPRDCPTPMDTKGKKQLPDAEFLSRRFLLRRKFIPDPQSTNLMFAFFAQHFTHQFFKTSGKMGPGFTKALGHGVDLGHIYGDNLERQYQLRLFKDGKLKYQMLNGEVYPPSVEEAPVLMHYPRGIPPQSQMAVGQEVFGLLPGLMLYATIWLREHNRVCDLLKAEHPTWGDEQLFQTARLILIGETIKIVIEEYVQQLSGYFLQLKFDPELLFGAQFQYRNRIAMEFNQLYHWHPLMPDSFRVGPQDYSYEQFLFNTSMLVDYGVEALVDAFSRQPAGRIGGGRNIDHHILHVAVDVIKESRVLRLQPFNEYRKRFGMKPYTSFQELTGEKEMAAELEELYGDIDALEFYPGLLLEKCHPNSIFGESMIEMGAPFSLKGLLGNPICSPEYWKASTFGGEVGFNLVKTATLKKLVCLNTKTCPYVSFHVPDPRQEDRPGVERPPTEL

Platelet [14] = assay: Antiplatelet activity in human platelet rich plasma assessed as inhibition of arachidonic acid-induced platelet aggregation preincubated for 2 mins followed by arachidonic acid addition by turbidimetric method relative to control; type: functional, cell-based
Platelet [15] = assay: Antiplatelet activity in human platelet rich plasma assessed as inhibition of arachidonic acid-induced platelet aggregation at 100 uM preincubated for 2 mins followed by arachidonic acid addition by turbidimetric method relative to control; type: functional
Cytochrome P450 3A4 = Cytochrome P450 3A4 (Homo sapiens, UniProt P08684); assay: Inhibition of recombinant human CYP3A4 expressed in baculosomes using BOMR as substrate preincubated for 10 mins followed by substrate/NADP+ addition measured for 1 hr; type: ADME; settings: for inhibition (INH): human, recombinant enzyme, 1 h
Plasma [16] = assay: Change in activated partial thromboplastin time in human plasma at 100 uM incubated for 15 mins at room temperature and 2 mins at 37 degC in presence of CaCl2; type: ADME, cell-free
[17] = Hemolytic activity against human erythrocytes after 3 hrs relative to control; type: ADME, cell-based, Erythrocyte; settings: read-out: Activity
Plasma [18] = assay: Change in prothrombin time in human plasma at 100 uM incubated for 15 mins at room temperature and 2 mins at 37 degC in presence of calcium thromboplastin; type: ADME, cell-free
Platelet [19] = assay: Potency index, ratio of ozagrel IC50 to test compound IC50 for inhibition of arachidonic acid-induced platelet aggregation in human platelet rich plasma; type: functional
[20] = molecular target: T2, Prostaglandin G/H synthase 2 (Homo sapiens, UniProt P35354); assay: Inhibition of recombinant human COX-2 assessed as reduction in PGH2 production up to 100 uM using arachidonic acid as substrate preincubated for 5 mins followed by substrate and hematin addition measured after 2 mins by ELISA relative to control
T2 sequence (P35354 whole entry): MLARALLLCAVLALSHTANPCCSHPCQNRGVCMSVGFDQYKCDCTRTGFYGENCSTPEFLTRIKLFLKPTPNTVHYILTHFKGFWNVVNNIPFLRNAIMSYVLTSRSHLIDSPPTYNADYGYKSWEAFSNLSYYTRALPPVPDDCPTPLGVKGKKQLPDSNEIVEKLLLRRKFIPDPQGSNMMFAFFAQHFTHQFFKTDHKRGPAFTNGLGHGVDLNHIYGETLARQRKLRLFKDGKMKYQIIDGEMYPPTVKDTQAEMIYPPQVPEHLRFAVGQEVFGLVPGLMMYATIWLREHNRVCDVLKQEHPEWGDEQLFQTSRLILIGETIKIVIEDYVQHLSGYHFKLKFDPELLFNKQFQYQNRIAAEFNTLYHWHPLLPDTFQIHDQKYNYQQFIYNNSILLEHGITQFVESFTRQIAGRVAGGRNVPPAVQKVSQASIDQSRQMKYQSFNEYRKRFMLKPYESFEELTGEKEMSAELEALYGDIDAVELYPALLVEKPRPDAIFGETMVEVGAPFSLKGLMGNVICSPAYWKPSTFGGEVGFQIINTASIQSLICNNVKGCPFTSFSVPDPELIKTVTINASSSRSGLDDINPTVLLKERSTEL

[21] = molecular target: T3, Thromboxane-A synthase (Homo sapiens) (UniProt P24557); assay: Inhibition of TXS in human platelet rich plasma assessed as decrease in TXB2 production at 100 uM using arachidonic acid after 5 mins by ELISA
T3 sequence (whole entry): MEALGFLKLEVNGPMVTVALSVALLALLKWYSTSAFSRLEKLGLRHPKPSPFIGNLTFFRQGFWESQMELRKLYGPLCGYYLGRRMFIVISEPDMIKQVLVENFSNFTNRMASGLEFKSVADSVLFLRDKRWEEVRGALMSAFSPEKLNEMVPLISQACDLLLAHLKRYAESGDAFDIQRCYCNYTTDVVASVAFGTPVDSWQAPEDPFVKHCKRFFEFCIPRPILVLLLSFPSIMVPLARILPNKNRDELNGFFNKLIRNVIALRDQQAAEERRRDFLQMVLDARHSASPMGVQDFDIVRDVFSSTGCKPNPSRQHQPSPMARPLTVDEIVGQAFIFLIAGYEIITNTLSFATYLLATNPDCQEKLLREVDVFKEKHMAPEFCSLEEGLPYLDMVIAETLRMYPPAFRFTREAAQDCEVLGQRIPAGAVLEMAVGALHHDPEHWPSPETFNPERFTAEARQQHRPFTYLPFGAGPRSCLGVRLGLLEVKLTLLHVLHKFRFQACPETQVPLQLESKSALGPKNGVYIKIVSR

[22] = molecular target: T1, Prostaglandin G/H synthase 1; assay: Inhibition of ovine COX-1 assessed as reduction in PGH2 production using arachidonic acid as substrate preincubated for 5 mins followed by substrate and hematin addition measured after 2 mins by ELISA relative to control; settings: sheep
[23] = Selectivity ratio of IC50 for recombinant human CYP3A4 to IC50 for arachidonic acid-induced platelet aggregation in human platelet rich plasma
[24] = molecular target: T1, Prostaglandin G/H synthase 1; assay: Inhibition of ovine COX-1 assessed as reduction in PGH2 production at 100 uM using arachidonic acid as substrate preincubated for 5 mins followed by substrate and hematin addition measured after 2 mins by ELISA relative to control; settings: sheep
[25] = molecular target: T2, Prostaglandin G/H synthase 2; assay: Inhibition of recombinant human COX-2 assessed as reduction in PGH2 production at 100 uM using arachidonic acid as substrate preincubated for 5 mins followed by substrate and hematin addition measured after 2 mins by ELISA relative to control

Prostaglandin G/H synthase 1 (Homo sapiens, UniProt P23219), sequence (P23219 whole entry): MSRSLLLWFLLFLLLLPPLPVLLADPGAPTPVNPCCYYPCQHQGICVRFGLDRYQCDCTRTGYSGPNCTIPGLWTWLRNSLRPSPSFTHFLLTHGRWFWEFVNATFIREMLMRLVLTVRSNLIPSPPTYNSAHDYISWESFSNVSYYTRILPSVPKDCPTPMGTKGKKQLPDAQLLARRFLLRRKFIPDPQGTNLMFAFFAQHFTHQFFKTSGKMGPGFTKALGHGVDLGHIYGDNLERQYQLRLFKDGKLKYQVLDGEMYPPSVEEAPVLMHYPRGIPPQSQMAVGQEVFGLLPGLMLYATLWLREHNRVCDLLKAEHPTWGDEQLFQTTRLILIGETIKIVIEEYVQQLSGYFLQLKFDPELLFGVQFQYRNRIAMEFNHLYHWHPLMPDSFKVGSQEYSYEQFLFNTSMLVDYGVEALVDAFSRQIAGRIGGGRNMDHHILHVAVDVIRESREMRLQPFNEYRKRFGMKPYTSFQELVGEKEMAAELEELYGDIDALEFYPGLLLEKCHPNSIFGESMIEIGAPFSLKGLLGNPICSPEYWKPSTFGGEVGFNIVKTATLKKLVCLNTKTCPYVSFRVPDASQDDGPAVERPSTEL
Cytochrome P450 3A4, sequence (P08684 whole entry): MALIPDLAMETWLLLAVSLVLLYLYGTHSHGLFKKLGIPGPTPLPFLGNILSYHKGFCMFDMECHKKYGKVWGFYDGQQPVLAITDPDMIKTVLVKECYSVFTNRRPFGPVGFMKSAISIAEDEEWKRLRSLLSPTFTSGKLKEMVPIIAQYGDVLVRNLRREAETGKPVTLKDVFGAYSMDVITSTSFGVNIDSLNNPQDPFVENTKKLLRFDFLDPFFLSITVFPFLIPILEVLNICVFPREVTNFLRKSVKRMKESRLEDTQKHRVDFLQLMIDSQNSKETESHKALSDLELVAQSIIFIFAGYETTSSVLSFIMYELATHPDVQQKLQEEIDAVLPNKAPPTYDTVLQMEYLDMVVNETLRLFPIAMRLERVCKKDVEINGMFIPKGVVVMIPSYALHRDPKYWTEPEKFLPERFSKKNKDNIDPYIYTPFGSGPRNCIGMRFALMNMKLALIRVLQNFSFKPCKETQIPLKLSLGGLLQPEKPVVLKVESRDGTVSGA

Activity [1]	IC50 (Platelet [4]) [µM]	Drug uptake (Platelet [5])	inhibition (INH) [6]	Drug uptake (Platelet [7])	IC50 (Platelet [9]) [µM]	IC50 (Platelet [10]) [µM]	inhibition (INH) [13]	IC50 (Platelet [14]) [µM]	inhibition (INH) [20]	Compound	Activity (Blood)	inhibition at 100 µM (Platelet [2]) [%]	inhibition at 100 µM (Platelet [3]) [%]	inhibition (Platelet [8])	inhibition at 100 µM (Platelet [11]) [%]	Ratio IC50 (Platelet [12])	inhibition at 100 µM (Platelet [15]) [%]	Activity (Plasma [16])	Activity (Plasma [18])	Ratio IC50 (Platelet [19])	other results
Active	> 100	Active	Not Active	Active	> 100	> 100	Not Active	3.67 to 10.2	Not Active	Cc1cc(C(=O)N/N=C/c2ccc(F)cc2)c2c(C)nn(-c3ccccc3)c2n1	Non-Toxic	3.88	9.19	inactive	13.8	<=10	95.4	Non-Toxic	Non-Toxic	<=10	inhibition (INH) (Cytochrome P450 3A4): Dose-dependent effect; hemolysis at 3 h [17]: 5%; inhibition [21]: Active
Active	> 100	Active	Not Active	Active	> 100	> 100	Not Active	3.67 to 10.2	Not Active	Cc1ccc(/C=N/NC(=O)c2cc(C)nc3c2c(C)nn3-c2ccccc2)cc1	Non-Toxic	0	5.58	inactive	6.2	<=10	89.2	Non-Toxic	Non-Toxic	<=10	inhibition (INH) (Cytochrome P450 3A4): Dose-dependent effect; inhibition [21]: Active
										COc1ccc2c(c1)c(CC(=O)O)c(C)n2C(=O)c1ccc(Cl)cc1 [INDOMETHACIN]											inhibition (INH) [22]: < 20%
Active	> 100	Active	Active	Active	> 100	> 100	Not Active	3.67 to 10.2	Not Active	Cc1cc(C(=O)N/N=C/c2ccc(Cl)cc2)c2c(C)nn(-c3ccccc3)c2n1	Non-Toxic	1.1	35.3	inactive	3.4	<=10	83.8	Non-Toxic	Non-Toxic	<=10	Ratio IC50 [23]: 20 to 30; IC50 (Cytochrome P450 3A4): 94.6 µM; hemolysis at 3 h [17]: 10%; inhibition [21]: Active
Active	> 100	Active	Not Active	Active	> 100	> 100	Not Active	3.67 to 10.2	Not Active	Cc1cc(C(=O)N/N=C/c2ccc(O)cc2)c2c(C)nn(-c3ccccc3)c2n1	Non-Toxic	3.3	64.6	inactive	3.22	<=10	96.8	Non-Toxic	Non-Toxic	<=10	inhibition (INH) [24]: Active; inhibition (INH) (Cytochrome P450 3A4): Dose-dependent effect; hemolysis at 3 h [17]: 0%; inhibition (INH) [25]: Active; inhibition [21]: Active
Active	> 100	Active	Not Active	Active	> 100	> 100	Not Active	3.67 to 10.2	Not Active	Cc1cc(C(=O)N/N=C/c2ccc(Br)cc2)c2c(C)nn(-c3ccccc3)c2n1	Non-Toxic	11.8	17	inactive	9.4	<=10	94.8	Non-Toxic	Non-Toxic	<=10	Ratio IC50 [23]: 20 to 30; IC50 (Cytochrome P450 3A4): 138 µM; hemolysis at 3 h [17]: 5%; inhibition [21]: Active
